Earlier results, collected in patent US20120196889A1, “CATECHOLAMINE DERIVATIVES AND PRODRUGS THEREOF” (H. Lundbeck A/S, priority 2009, published 2012).

Details: in man after oral dosing; high hepatic first-pass metabolism

In the case of `CCCc1cc2c(s1)CN[C@@H]1CCc3cc(OC(C)=O)c(OC(C)=O)cc3[C@@H]21` [Adrogolide], the oral bioavailability is listed as ~4%.
